In patent US7115724B2, “Murine genomic polynucleotide sequence encoding a G-protein coupled receptor and methods of use therefor” (priority 2001, dated 2006):
Where two headings read alike, the source gives them in different places.

Experiments:
mouse P2T receptor = molecular target: T1, mouse P2T receptor (Mus musculus, UniProt Q9CPV9); assay: Yeast cell-based assay of mouse P2T receptor agonist activation (β-galactosidase reporter); conditions: for rank order of potency of agonist stimulation of the mouse P2T receptor: yeast assay (FIG. 2)
T1 construct: Oligonucleotides corresponding to the 5′ and 3′ ends of the predicted protein coding region were used to amplify a fragment; expressed in transfected cells; host or cells: Saccharomyces cerevisiae MPY578 variant expressing a Gpa1-Gαt chimera, with pMP344 (p426GPD backbone) and the FUS1-LacZ reporter pMP283
T1 sequence (Q9CPV9 whole entry, the tested form may be a part): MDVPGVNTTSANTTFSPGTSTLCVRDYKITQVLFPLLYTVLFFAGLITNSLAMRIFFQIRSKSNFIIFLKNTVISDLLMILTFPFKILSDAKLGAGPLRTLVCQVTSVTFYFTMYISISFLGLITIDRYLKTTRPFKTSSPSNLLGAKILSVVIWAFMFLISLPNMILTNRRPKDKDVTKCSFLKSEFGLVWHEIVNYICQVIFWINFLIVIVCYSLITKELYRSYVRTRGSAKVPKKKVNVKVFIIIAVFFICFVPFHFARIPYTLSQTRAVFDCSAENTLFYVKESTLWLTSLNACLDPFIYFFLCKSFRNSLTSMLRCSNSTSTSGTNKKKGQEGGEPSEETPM
Source text: In order to facilitate coupling of the P2T receptor to G protein, MPY578 variant cells express chimeric G alpha proteins coupled to the mating signal transduction pathway. The chimeric constructs are expressed from the GPA1 locus and are composed of Gpa1 sequences in which the 5 C-terminal amino acids have been replaced with those of all the mammalian Gα proteins. A multicopy FUS1-LacZ reporter gene plasmid, pMP283, was introduced into P2T receptor-containing cells and selected on media lacking trp and ura. The resulting yeast strains were used for further analysis.
MPY578 cells that express Gpa1-Gαt chimeric G alpha protein and containing pMP344 and pMP283 were diluted in assay medium (SCD-ura-trp, pH 6.8, 25 mM PIPES, 1 mM 3-aminotriazole) dispensed (5×10^6/ml, 200 μl/well) to the wells of 96-well microtiter dishes containing purinergic ligands. The plates were incubated with shaking (600 rpm) at 30° C. for 3 hours. Samples (25 μl) were transferred to Wallac B & W isoplates for β-galactosidase assay. An equal volume of GAL-SCREEN lysis and chemiluminescent β-galactosidase assay mixture was added. The plates were incubated for 30 min at 30° C. and light emission measured using a Wallac Victor II. Assays were conducted in quadruplicate and results were plotted using GraphPad Prizm.

human P2Y12 receptor [1] = molecular target: T2, human P2Y12 receptor (Homo sapiens, UniProt Q9H244); conditions: Zhang et al., 2001, cited from earlier work; for rank order of potency, human P2T (P2Y12) receptor in adenylyl cyclase inhibition assays: reported values
T2 sequence (Q9H244 whole entry): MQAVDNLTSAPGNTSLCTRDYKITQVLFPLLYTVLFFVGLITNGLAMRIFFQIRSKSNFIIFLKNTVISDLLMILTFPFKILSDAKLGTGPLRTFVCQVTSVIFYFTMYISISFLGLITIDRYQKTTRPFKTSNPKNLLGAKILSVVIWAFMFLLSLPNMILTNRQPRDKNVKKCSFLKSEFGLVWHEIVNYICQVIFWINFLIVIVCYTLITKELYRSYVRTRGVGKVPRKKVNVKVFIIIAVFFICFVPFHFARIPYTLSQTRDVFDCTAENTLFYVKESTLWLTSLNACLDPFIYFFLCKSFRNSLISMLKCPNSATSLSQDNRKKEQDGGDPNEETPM

human P2Y12 receptor [2] = molecular target: T2, human P2Y12 receptor; set-up: host or cells: NIH3T3 cells with a chimeric Gq/i3 construct (FLIPR); conditions: cited from earlier work; for rank order of potency, human P2T (P2Y12) receptor measured in FLIPR: reported values, Zhang et al., 2001
mouse P2Y12 = molecular target: T3, mouse P2Y12 (Mus musculus, UniProt Q9CPV9); assay: Agonist-induced release of intracellular calcium (FLIPR) in NIH3T3 cells expressing mouse P2Y12 and chimeric Gαq/i3; assay type: cell-based; conditions: for rank order of potency of agonist stimulation of the mouse P2Y12 receptor in FLIPR: NIH3T3 Gαq/i3 cells (FIG. 4)
T3 construct: expressed in transfected cells; host or cells: NIH3T3 cells stably transfected with pCDNA-Gαq/i3 and pCDNA3.1-mP2Y12
T3 sequence (Q9CPV9 whole entry): as the sequence (Q9CPV9 whole entry, the tested form may be a part) above
Procedure: Mammalian cell expression and measurement of intracellular calcium. NIH3T3 cells were stably transfected with pCDNA-Gαq/i3 by electroporation and cultured in the presence of 800 μg/ml neomycin. The NIH3T3 Gαq/i3 line was subsequently stably transfected with pCDNA3.1-mP2Y12 by electroporation and cultured in the presence of 800 μg/ml neomycin and 400 μg/ml hygromycin. Cells were plated without selection and grown overnight at 37° C. The cells were washed with Hank's balanced salt solution without phenol red plus 20 mM HEPES, 2.5 mM probenecid, pH 7.4 and loaded with wash solution plus 5 μM Fluo-4, 0.04% pluronic acid and 1% fetal bovine serum for 1 hour at 37° C. After removing the dye solution and washed with wash buffer, agonists were added and analyzed using the FLIPR (PE Biosystems) to measure accumulation of intracellular calcium in response to compound treatments.
In published reports, Xenopus oocytes injected with the human P2Y12 receptor cRNA and coupled to stimulation of coinjected Kir3.1/Kir3.2 inwardly rectifying K+ currents, the EC50 was 300 nM (Hollopeter, 2001). […] The rank orders of potency of agonist stimulation of the mouse P2Y12 receptor in FLIPR (2MeSADP>ADP=ADPβS>ATPγS) agree well with reported values for the human P2Y12 receptor measured in FLIPR (2MeSADP=2MeSATP>ADP=ADPβS>2CIATP>ATPγS) and in adenylyl cyclase inhibition assays (2MeSATP>2MeSADP>ADP>ATPγS>ADPβS>2CIATP) (Zhang, 2001).

human P2Y12 receptor [3] = molecular target: T2, human P2Y12 receptor; conditions: Xenopus oocytes injected with P2T (human P2Y12) receptor cRNA; Hollopeter et al., 2001; read-out: EC50, stimulation of Kir3.1/Kir3.2 inwardly rectifying K+ currents; cited from earlier work

SMILES	rank order of potency of agonist stimulation of the mouse P2T receptor (mouse P2T receptor)	rank order of potency of agonist stimulation of the mouse P2Y12 receptor in FLIPR (mouse P2Y12) [MeSADP>ADP=ADPβS>ATPγS]	EC50 (mouse P2T receptor; MPY578 yeast cells, β-galactosidase reporter, read-out: EC50 for ADP stimulation of the mouse P2T assayed in yeast) [nM]	EC50 (mouse P2Y12; FLIPR, NIH3T3 Gαq/i3 cells, read-out: EC50 for ADP stimulation of the mouse P2Y12 dependent release of intracellular calcium) [nM]	rank order of potency, human P2T (P2Y12) receptor in adenylyl cyclase inhibition assays (human P2Y12 receptor [1])	rank order of potency, human P2T (P2Y12) receptor measured in FLIPR (human P2Y12 receptor [2])	EC50 (human P2Y12 receptor [3]) [nM]	EC50 (human P2Y12 receptor [1]; read-out: EC50, ADP dependent inhibition of cAMP accumulation) [nM]	EC50 (human P2Y12 receptor [2]; NIH3T3 cells, receptor with chimeric Gq construct, literature value, read-out: EC50 measured by FLIPR) [nM]
CSc1nc(N)c2ncn([C@@H]3O[C@H](COP(=O)(O)OP(=O)(O)OP(=O)(O)O)[C@@H](O)[C@H]3O)c2n1 [2MeSATP]	2MeSADP>2MeSATP>ADP=ADPβS>ATPγS>2CIATP	–	–	–	2MeSATP>2MeSADP>ADP>ATPγS>ADPβS>2CIATP	2MeSADP=2MeSATP>ADP =ADPβS>2CIATP>ATPγS	–	–	–
Nc1ncnc2c1ncn2[C@@H]1O[C@H](COP(=O)(O)OP(O)(O)=S)[C@@H](O)[C@H]1O [ADPβS]	2MeSADP>2MeSATP>ADP=ADPβS>ATPγS>2CIATP	2	–	–	2MeSATP>2MeSADP>ADP>ATPγS>ADPβS>2CIATP	2MeSADP=2MeSATP>ADP =ADPβS>2CIATP>ATPγS	–	–	–
Nc1ncnc2c1ncn2[C@@H]1O[C@H](COP(=O)(O)OP(=O)(O)OP(O)(O)=S)[C@@H](O)[C@H]1O [ATPγS]	2MeSADP>2MeSATP>ADP=ADPβS>ATPγS>2CIATP	2	–	–	2MeSATP>2MeSADP>ADP>ATPγS>ADPβS>2CIATP	2MeSADP=2MeSATP>ADP =ADPβS>2CIATP>ATPγS	–	–	–

The next lines start with results.

rank order of potency of agonist stimulation of the mouse P2T receptor (mouse P2T receptor)	rank order of potency of agonist stimulation of the mouse P2Y12 receptor in FLIPR (mouse P2Y12) [MeSADP>ADP=ADPβS>ATPγS]	EC50 (mouse P2T receptor; MPY578 yeast cells, β-galactosidase reporter, read-out: EC50 for ADP stimulation of the mouse P2T assayed in yeast) [nM]	EC50 (mouse P2Y12; FLIPR, NIH3T3 Gαq/i3 cells, read-out: EC50 for ADP stimulation of the mouse P2Y12 dependent release of intracellular calcium) [nM]	SMILES	rank order of potency, human P2T (P2Y12) receptor in adenylyl cyclase inhibition assays (human P2Y12 receptor [1])	rank order of potency, human P2T (P2Y12) receptor measured in FLIPR (human P2Y12 receptor [2])	EC50 (human P2Y12 receptor [3]) [nM]	EC50 (human P2Y12 receptor [1]; read-out: EC50, ADP dependent inhibition of cAMP accumulation) [nM]	EC50 (human P2Y12 receptor [2]; NIH3T3 cells, receptor with chimeric Gq construct, literature value, read-out: EC50 measured by FLIPR) [nM]
2MeSADP>2MeSATP>ADP=ADPβS>ATPγS>2CIATP	–	–	–	Nc1nc(Cl)nc2c1ncn2[C@@H]1O[C@H](COP(=O)(O)OP(=O)(O)OP(=O)(O)O)[C@@H](O)[C@H]1O [2CIATP]	2MeSATP>2MeSADP>ADP>ATPγS>ADPβS>2CIATP	2MeSADP=2MeSATP>ADP =ADPβS>2CIATP>ATPγS	–	–	–
2MeSADP>2MeSATP>ADP=ADPβS>ATPγS>2CIATP	2	–	–	CSc1nc(N)c2ncn([C@@H]3O[C@H](COP(=O)(O)OP(=O)(O)O)[C@@H](O)[C@H]3O)c2n1 [2MeSADP]	2MeSATP>2MeSADP>ADP>ATPγS>ADPβS>2CIATP	2MeSADP=2MeSATP>ADP =ADPβS>2CIATP>ATPγS	–	–	–
2MeSADP>2MeSATP>ADP=ADPβS>ATPγS>2CIATP	2	256	27	Nc1ncnc2c1ncn2[C@@H]1O[C@H](COP(=O)(O)OP(=O)(O)O)[C@@H](O)[C@H]1O [ADP]	2MeSATP>2MeSADP>ADP>ATPγS>ADPβS>2CIATP	2MeSADP=2MeSATP>ADP =ADPβS>2CIATP>ATPγS	300	61	74
